# What was measured:
# [1] = test system: E749-57-specific CD8 T cells; experiment: ex vivo IFN-γ ELISPOT after E7 vaccination followed by ivag immunostimulant; assay type: in vivo, C57BL/6 mice; details: sc E71-98+CpG and HLT day 1; ivag immunostimulant day 6; analysis day 9
# E7-specific CD8 cells = details: single dose HSp E7+poly IC followed by three consecutive daily doses of Poly IC alone; cited from earlier work
# [2] = test system: E749-57-specific CD8 T cells; experiment: ex vivo IFN-γ ELISPOT after sc or i.n. immunization with E71-98 + adjuvants; assay type: in vivo, C57BL/6 mice; details: single 50 μg sc or i.n. dose, no adjuvant; 7 days after immunization
# [3] = molecular target: HPV16 E749-57 peptide presented by H-2D^b (human papillomavirus type 16; mouse (C57BL/6)) (UniProt P01899)
# [4] = molecular target: HPV16 E749-57 peptide presented by H-2D^b (human papillomavirus type 16; mouse (C57BL/6)) (UniProt P01899); remark: listed apart in the source
substance,measurement,setting,value
polyriboinosinic:polyribocytidylic acid [pI:C],E7-specific CD8 T cell responses in CV tissue vs ivag PBS,[1],strongly enhanced
same,numbers of E7-specific CD8 cells vs single dose of HspE7+poly IC,E7-specific CD8 cells,did not elicit a significant increase
E71-98: complete synthetic E7 polypeptide (residues 1-98) of human papillomavirus type 16,E7-specific CD8 T cell responses in PBMC,[2],did not induce detectable E7-specific CD8 T cell responses
"E7-specific CD8 T cells from C57BL/6 mice vaccinated with E71-98 + adjuvants (PBMC, spleen, lymph no (cells without a defined receptor)",ex vivo IFN-γ ELISPOT (E7-specific IFN-γ secreting cells/10^5 cells),[3],347
same,in vivo cytotoxicity assay (specific lysis of CFSE-labeled peptide-pulsed splenocytes),[4],80%
